These results are taken from article PMC12040169 (PLOS Biology, 2025).

The series in a line: in vitro. Conditions: human, hela cells, % viability.
`COc1ccccc1-c1ccc(CN(C)Cc2ccccc2N2CCOCC2)cc1` [CBK286108]: the viability (in general, a read-out of living cells in per cent, often relative to untreated cells) at 28.5 h, 10 µM was determined as 90.6%. With `CN(C(=O)Cn1cccc(C(=O)NCC(C)(C)c2ccc(F)cc2)c1=O)C1CCCCC1` [CBK286112], the viability at 28.5 h, 10 µM is 108%.

As for `Cc1nn(C)cc1S(=O)(=O)N1CCC(c2cccc(Cc3ccccc3Cl)n2)CC1` [CBK286115], the viability at 28.5 h, 10 µM came to 95.3%. `CCn1ncc(S(=O)(=O)N2CCC(c3cccc(Cc4ccccc4C)n3)CC2)c1C` [CBK286116]: the viability at 28.5 h, 10 µM was 91%.

`COc1ccc(CN2CCCc3c(C)nc(C4CCCN(C(=O)C5CCC5)C4)nc32)cc1` (centres unmarked) [CBK286117]: the viability at 28.5 h, 10 µM came to 95.1%. Regarding `Cc1cc(N2CCC(c3cc(CCOc4ccc(Cl)cc4)[nH]n3)C2)nc(C)n1` (centres unmarked) [CBK286119], the viability at 28.5 h, 10 µM came out at 98.1%. Then `Cc1ccc(Nc2nccc(C3CCCN(Cc4ccc5[nH]ccc5c4)C3)n2)nc1` (centres unmarked) [CBK286122], with 88%.

Consider `COC(C)(C)C(=O)N1CCCC(c2ccc(Cc3cccc(C(F)(F)F)c3)cn2)C1` (centres unmarked) [CBK286124], for which the viability at 28.5 h, 10 µM was 107%. Turning to `CC(=O)Nc1ccc(C(=O)N2CCCC(c3cccc(Cc4ccccc4Cl)n3)C2)cc1` (centres unmarked) [CBK286126], the viability at 28.5 h, 10 µM came out at 109%. Then `CC(=O)Nc1cccc(-c2nccnc2C2CCCN(CCc3ccccc3)C2)c1` (centres unmarked) [CBK286128], with 110%; and `CC(C)c1ccc(OCCc2cc(C3CCN(C(=O)CC4CCCC4)C3)n[nH]2)cc1` (centres unmarked) [CBK286129], with 102%. Then `Cc1ccc(C2(O)CCN(C(=O)CC3CCN(C(=O)CC4CCCCC4)CC3)C2)cc1` (centres unmarked) [CBK286132], with 96.9%. As for `COc1ccc(CN2CCCC(c3nccnc3-c3cccc(NC(C)=O)c3)C2)cc1` (centres unmarked) [CBK286135], the figure is 104%.

As to `O=S(=O)(c1ccc(F)cc1)N1CCCC(c2nccnc2-c2ccc(F)cc2)C1` (centres unmarked) [CBK286136], the viability at 28.5 h, 10 µM amounted to 117%. Then `COc1cccc(-c2nccnc2C2CCCN(S(=O)(=O)c3ccc(F)cc3)C2)c1` (centres unmarked) [CBK286138], with 108%; and `Cc1ccccc1Cc1cccc(C2CCN(S(=O)(=O)c3cn(C)nc3C)CC2)n1` [CBK286141], with 86.7%. Turning to `O=C(c1ccc(F)cc1)N1CCCC(c2nccnc2-c2cccc(C(F)(F)F)c2)C1` (centres unmarked) [CBK286142], the viability at 28.5 h, 10 µM was 98.3%. As for `COc1ccccc1-c1cccc(C2CCCN(C(=O)Cc3c[nH]c4ccccc34)C2)n1` (centres unmarked) [CBK286143], the figure is 100%; as for `CC(=O)Nc1ccc(C(=O)N2CCCC2c2cccc(Cc3ccc(Cl)cc3)n2)cc1` (centres unmarked) [CBK286144], 110%. Turning to `Cc1ncsc1C(=O)N1CCC(c2cccc(Cc3ccccc3Cl)n2)CC1` [CBK286146], the viability at 28.5 h, 10 µM stood at 99.2%. Then `Cc1ccccc1-c1cncc(C2CCN(C(=O)Cc3c[nH]c4ccccc34)CC2)n1` [CBK286148], with 79.4%; and `COc1cccc(-c2cncc(C3CCCN(Cc4ccc5[nH]ccc5c4)C3)n2)c1` (centres unmarked) [CBK286151], with 84.7%; and `Cc1ccc2cc(CNc3ccc(-c4nc5cc(C)ccc5[nH]4)cc3)c(O)nc2c1` [CBK286156], with 70.8%. As for `COc1ccc2cc(CNc3ccc(Oc4ccccc4)cc3)c(=O)[nH]c2c1` [CBK286158], the figure is 83.7%. As for `COc1ccc2cc(CNc3ccc(CCc4nc5ccccc5n4C)cc3)c(=O)[nH]c2c1` [CBK286159], the figure is 103%. `COc1ccc2[nH]c(=O)c(CNc3ccc(CCc4nc5ccccc5n4C)cc3)cc2c1` [CBK286162]: the viability at 28.5 h, 10 µM came out at 87.9%. In the case of `c1ccc(CN2CCC(NCc3ccco3)C(c3ccccc3)C2)cc1` (centres unmarked) [CBK286167], the viability at 28.5 h, 10 µM was found to be 95.4%.

In the case of `O=C(CN1C2CCC1CC(O)(c1ccco1)C2)N1c2ccccc2CCc2ccccc21` (centres unmarked) [CBK286168], the viability at 28.5 h, 10 µM came to 94%. Then `O=C(c1nc2ccccc2s1)C1CCN(C(=O)CCc2ccc(-c3ccccc3)o2)CC1` [CBK286170], with 86.8%; and `CC[C@H](Cn1ncc2ccccc2c1=O)NC(=O)c1ccc2c(c1)Sc1ccccc1O2` [CBK286173], with 81.3%; and `O=C(c1ccc(-c2ccc(F)cc2)o1)N1CCC(n2c(=O)oc3ccccc32)CC1` [CBK286175], with 104%. Turning to `COc1ccc(N2CCN(c3c(C)c(C)nc4cc(-c5nccn5C)nn34)CC2)cc1` [CBK286178], the viability at 28.5 h, 10 µM stood at 85.1%.

For the molecule `COc1ccc(C(=O)Cn2nc3nnc(-c4ccccc4)c(-c4ccccc4)n3c2=O)cc1` [CBK286181], the viability at 28.5 h, 10 µM came out at 83.4%. With `COc1ccccc1N1CCN(c2c(C)c(C)nc3cc(-c4nccn4C)nn23)CC1` [CBK286182], the viability at 28.5 h, 10 µM was found to be 87.5%. As for `O=C(Cc1ccc(-c2ccccc2)cc1)N1CCC2(CC1)Nc1ccccc1S(=O)(=O)N2` [CBK286189], the viability at 28.5 h, 10 µM was found to be 79.2%. `CCC1Oc2ccc(C(O)c3ccco3)cc2N(Cc2cccc(OC)c2)C1=O` (centres unmarked) [CBK286190]: the viability at 28.5 h, 10 µM was determined as 89.7%.

For the molecule `COc1cc2c(cc1OC)C1c3ccccc3N(Cn3nnc4ccccc43)C(=O)N1CC2` (centres unmarked) [CBK286193], the viability at 28.5 h, 10 µM was 84.2%. Take `Cc1ccc2c(c1)oc(=O)n2CCNC(=O)CC1c2ccccc2Oc2ccccc21` [CBK286194]: the viability at 28.5 h, 10 µM is 94.8%. `c1ccc(-c2nnc(-c3ccco3)c(-c3ccco3)n2)cc1` [CBK286196]: the viability at 28.5 h, 10 µM came to 83.7%. Consider `O=C(NCCn1c(=O)oc2ccccc21)C(c1cccs1)c1cccs1` [CBK286198], for which the viability at 28.5 h, 10 µM stood at 99.8%.

Turning to `CC(=O)N1CCc2sccc2C1c1ccc(NC(=O)c2ccco2)cc1` (centres unmarked) [CBK286199], the viability at 28.5 h, 10 µM is 102%. For `CN(C)c1ccc(NC(=O)CN2C(=O)[C@H]3CCCN3c3ncccc32)cc1` [CBK286202], the viability at 28.5 h, 10 µM came out at 118%. Then `O=C(CN1C(=O)[C@@H]2CCCN2c2ncccc21)NC1CCCCC1` [CBK286204], with 116%; and `COc1cccc(-c2cccc(C3CCCN(C(=O)Cc4c[nH]c5ccccc45)C3)n2)c1` (centres unmarked) [CBK286207], with 114%; and `O=C(COc1ccccc1)N1CCC(c2cccc(Cc3ccccc3F)n2)CC1` [CBK286211], with 104%.

Take `COc1ccc(CCC(=O)N2CCC(c3cccc(Cc4cccc(F)c4)n3)CC2)cc1` [CBK286212]: the viability at 28.5 h, 10 µM was 105%.

Turning to `O=C(Cc1ccc(F)cc1)N1CCC(c2cccc(Cc3ccccc3F)n2)CC1` [CBK286213], the viability at 28.5 h, 10 µM was 117%. For the molecule `O=C(CN1CCCC1)N1CCC(c2cccc(Cc3ccc(C(F)(F)F)cc3)n2)CC1` [CBK286215], the viability at 28.5 h, 10 µM stood at 106%. Take `Cc1ncsc1C(=O)N1CCC(c2cccc(Cc3ccc(C(F)(F)F)cc3)n2)CC1` [CBK286216]: the viability at 28.5 h, 10 µM is 99.5%.

Regarding `COc1ccccc1-c1cccc(C2CCCN(C(=O)CCCc3ccccc3)C2)n1` (centres unmarked) [CBK286217], the viability at 28.5 h, 10 µM was found to be 100%. With `O=C(c1ccccc1)N1CCCC(c2nccnc2-c2cccc(C(F)(F)F)c2)C1` (centres unmarked) [CBK286218], the viability at 28.5 h, 10 µM was found to be 99.9%. For `O=C(CCc1ccccc1)N1CCC(c2cccc(Cc3cccc(F)c3)n2)CC1` [CBK286219], the viability at 28.5 h, 10 µM came out at 97.5%. As for `COc1ccc(CC(=O)N2CCCC2c2cccc(Cc3cccc(F)c3)n2)cc1` (centres unmarked) [CBK286220], the figure is 108%; as for `O=C(Cc1cccnc1)N1CCC(c2cccc(Cc3ccc(C(F)(F)F)cc3)n2)CC1` [CBK286223], 92.8%; as for `COc1ccc(CC(=O)N2CCCC(c3nc(C)c4c(n3)N(CC3CC3)CCC4)C2)cc1` (centres unmarked) [CBK286228], 100%. In the case of `COc1ccccc1Cc1cccc(C2CCCN2C(=O)CCc2ccccc2)n1` (centres unmarked) [CBK286229], the viability at 28.5 h, 10 µM amounted to 108%.

`O=C(COc1ccccc1)N1CCCC1c1cccc(Cc2ccc(F)cc2)n1` (centres unmarked) [CBK286230]: the viability at 28.5 h, 10 µM is 102%. As for `O=C(Cc1ccc(F)cc1)N1CCCC1c1cccc(Cc2ccc(F)cc2)n1` (centres unmarked) [CBK286234], the figure is 94.7%.

For the molecule `O=C(COc1ccc(F)cc1)N1CCCC1c1cccc(Cc2ccc(F)cc2)n1` (centres unmarked) [CBK286235], the viability at 28.5 h, 10 µM was found to be 99.3%. As for `COc1ccccc1Cc1cccc(C2CCN(C(=O)c3ccccc3)CC2)n1` [CBK286236], the viability at 28.5 h, 10 µM stood at 101%. Take `Cc1cccc(Cc2cccc(C3CCCN(C(=O)c4ccc(=O)[nH]c4)C3)n2)c1` (centres unmarked) [CBK286243]: the viability at 28.5 h, 10 µM came out at 95.9%. Regarding `CCn1ncc(S(=O)(=O)N2CCCC(c3cccc(Cc4cccc(C)c4)n3)C2)c1C` (centres unmarked) [CBK286244], the viability at 28.5 h, 10 µM stood at 97.7%.

`O=C(CCc1ccc(F)cc1)N1CCC(CC(=O)N2CCN(c3ccccc3)CC2)CC1` [CBK286245]: the viability at 28.5 h, 10 µM worked out at 108%.

`CCC(=O)N1CCCC1c1nc(C)c2c(n1)N(Cc1ccc(F)cc1)CCC2` (centres unmarked) [CBK286247]: the viability at 28.5 h, 10 µM stood at 104%. As for `Cc1nc(C2CCCN2C(=O)CC2CCCC2)nc2c1CCCN2Cc1ccccn1` (centres unmarked) [CBK286252], the figure is 105%; as for `CN(C)c1ncc(-c2ccccc2)c(C2CCCN2Cc2ccc3ncccc3c2)n1` (centres unmarked) [CBK286256], 77.6%.

Turning to `Cc1nc(C2CCCN(C(=O)C3CCC3)C2)nc2c1CCCN2Cc1ccccc1` (centres unmarked) [CBK286257], the viability at 28.5 h, 10 µM turned out to be 78.2%.

For the molecule `CCCn1cc(S(=O)(=O)N2CCCC2c2ccc(Nc3cccc(C)n3)cn2)c(C)n1` (centres unmarked) [CBK286258], the viability at 28.5 h, 10 µM turned out to be 77.6%.

`CN(Cc1ccc2ncccc2c1)C(=O)CC1CCN(CCc2ccccc2)CC1` [CBK286261]: the viability at 28.5 h, 10 µM worked out at 108%. As for `Cc1cc(Cc2ccccc2Cl)cc(C2CCCN(CC(=O)N(C)C)C2)n1` (centres unmarked) [CBK286262], the figure is 87.6%; as for `COc1ccc(C2CCCN2C(=O)CC2CCN(C(=O)CC3CCCCC3)CC2)cc1` (centres unmarked) [CBK286263], 102%; as for `COc1cccc(C2CCCN2C(=O)CC2CCN(C(=O)CC3CCCCC3)CC2)c1` (centres unmarked) [CBK286264], 98.4%. For the molecule `CN(CC1COc2ccccc2O1)C(=O)CC1CCN(C(=O)CC2CCCCC2)CC1` (centres unmarked) [CBK286265], the viability at 28.5 h, 10 µM was found to be 92.7%. As for `O=C(CC1CCN(C(=O)c2ccc3nsnc3c2)CC1)N1CCN(c2ccccc2)CC1` [CBK286266], the viability at 28.5 h, 10 µM amounted to 85.9%.
